Source: ChEMBL document CHEMBL4699665, “Discovery of ANT3310, a Novel Broad-Spectrum Serine β-Lactamase Inhibitor of the Diazabicyclooctane Class, Which Strongly Potentiates Meropenem Activity against Carbapenem-Resistant Enterobacterales and Acinetobacter baumannii” (J Med Chem, 2020)
pIC50: −log10 of the molar value.

What was measured:
[1] = Half life in rat at 1 mg/kg, iv; format: ADME, organism-based; conditions: in vivo
[2] = Inhibition of beta lactamase AmpC in Enterobacter cloacae assessed as decrease in enzyme activity using nitrocefin as substrate preincubated for 10 mins followed by substrate addition measured for 10 mins by fluorescence plate reader analysis
[3] = Inhibition of beta lactamase CTXM-15 in Enterobacter cloacae assessed as decrease in enzyme activity using nitrocefin as substrate preincubated for 10 mins followed by substrate addition measured for 10 mins by fluorescence plate reader analysis
[4] = Inhibition of beta lactamase TEM-1 in Enterobacter cloacae assessed as decrease in enzyme activity using nitrocefin as substrate preincubated for 10 mins followed by substrate addition measured for 10 mins by fluorescence plate reader analysis
[5] = Inhibition of beta lactamase KPC-2 in Enterobacter cloacae assessed as decrease in enzyme activity using nitrocefin as substrate preincubated for 10 mins followed by substrate addition measured for 10 mins by fluorescence plate reader analysis
[6] = Inhibition of bacteria beta lactamase OXA-23 assessed as decrease in enzyme activity using nitrocefin as substrate preincubated for 10 mins followed by substrate addition measured for 10 mins by fluorescence plate reader analysis
Enterobacter cloacae [7] = experiment: Potentiation of meropenem-induced antibacterial activity against Enterobacter cloacae expressing TEM-1/KPC-2 assessed as meropenem MIC at 4 ug/ml by broth microdilution method (reference value: 8 ug/ml); format: functional; conditions: dose 4 µg/ml
Klebsiella pneumoniae [8] = experiment: Potentiation of meropenem-induced antibacterial activity against Klebsiella pneumoniae expressing TEM-OSBL/CTX-M-14/OXA-48 assessed as meropenem MIC at 4 ug/ml by broth microdilution method (reference value: 16 ug/ml); format: functional; conditions: dose 4 µg/ml
Klebsiella pneumoniae [9] = experiment: Potentiation of meropenem-induced antibacterial activity against Klebsiella pneumoniae expressing TEM-1/SHV-11/KPC-3 assessed as meropenem MIC at 4 ug/ml by broth microdilution method (reference value: 128 ug/ml); format: functional; conditions: dose 4 µg/ml
Enterobacter cloacae [10] = experiment: Antibacterial activity against Enterobacter cloacae expressing TEM-1/KPC-2 by broth microdilution method; format: functional
Klebsiella pneumoniae [11] = experiment: Antibacterial activity against Klebsiella pneumoniae expressing TEM-1/SHV-11/KPC-3 by broth microdilution method; format: functional
Enterobacter [12] = experiment: Inhibition of beta lactamase KPC in carbapenem-resistant Enterobacter assessed as meropenem-induced antibacterial activity by measuring meropenem MIC90 at 4 ug/ml by broth microdilution method (Rvb >32 ug/ml); conditions: dose 4.0 µg/ml
Enterobacter [13] = experiment: Inhibition of beta lactamase KPC in carbapenem-resistant Enterobacter assessed as meropenem maximum concentration required for antibacterial activity at 4 ug/ml by broth microdilution method (Rvb >32 ug/ml); conditions: dose 4.0 µg/ml
Enterobacter [14] = experiment: Inhibition of beta lactamase OXA in carbapenem-resistant Enterobacter assessed as meropenem-induced antibacterial activity by measuring meropenem MIC50 at 4 ug/ml by broth microdilution method (reference value: 16 ug/ml); conditions: dose 4.0 µg/ml
Enterobacter [15] = experiment: Inhibition of beta lactamase OXA in carbapenem-resistant Enterobacter assessed as meropenem-induced antibacterial activity by measuring meropenem MIC 90 at 4 ug/ml by broth microdilution method (Rvb >32 ug/ml); conditions: dose 4.0 µg/ml
Enterobacter [16] = experiment: Inhibition of beta lactamase OXA in carbapenem-resistant Enterobacter assessed as meropenem minimum concentration required for antibacterial activity at 4 ug/ml by broth microdilution method (reference value: 2 ug/ml); conditions: dose 4.0 µg/ml
Acinetobacter baumannii [17] = experiment: Inhibition of beta lactamase OXA in carbapenem-resistant Acinetobacter baumannii assessed as meropenem-induced antibacterial activity by measuring meropenem MIC50 at 4 ug/ml by broth microdilution method (Rvb > 32 ug/ml); conditions: dose 4.0 µg/ml
Acinetobacter baumannii [18] = experiment: Inhibition of beta lactamase OXA in carbapenem-resistant Acinetobacter baumannii assessed as meropenem-induced antibacterial activity by measuring meropenem MIC90 at 4 ug/ml by broth microdilution method (Rvb > 32 ug/ml); conditions: dose 4.0 µg/ml
Acinetobacter baumannii [19] = experiment: Inhibition of beta lactamase OXA in carbapenem-resistant Acinetobacter baumannii assessed as meropenem minimum concentration required for antibacterial activity at 4 ug/ml by broth microdilution method (reference value: 8 ug/ml); conditions: dose 4.0 µg/ml
Acinetobacter baumannii [20] = experiment: Inhibition of beta lactamase OXA in carbapenem-resistant Acinetobacter baumannii assessed as meropenem maximum concentration required for antibacterial activity at 4 ug/ml by broth microdilution method (Rvb > 32 ug/ml); conditions: dose 4.0 µg/ml
[21] = Stability in mouse plasma assessed as parent compound remaining after 1 hr; format: ADME, cell-free; conditions: read-out: Stabilty
[22] = Stability in dog plasma assessed as parent compound remaining after 1 hr; format: ADME, cell-free, Canis lupus familiaris; conditions: read-out: Stabilty
[23] = Intrinsic clearance in mouse hepatocytes assessed per million cells; format: ADME, cell-based, Hepatocyte; conditions: read-out: CLH
[24] = Intrinsic clearance in rat hepatocytes assessed per million cells; format: ADME, cell-based, Hepatocyte; conditions: read-out: CLH
[25] = Intrinsic clearance in dog hepatocytes assessed per million cells; format: ADME, cell-based, Canis lupus familiaris, Hepatocyte; conditions: read-out: CLH
[26] = Intrinsic clearance in human hepatocytes assessed per million cells; format: ADME, cell-based, Hepatocyte; conditions: read-out: CLH
[27] = Plasma protein binding in mouse assessed as fraction unbound by LC-MS/MS analysis; format: ADME, cell-free
[28] = Plasma protein binding in rat assessed as fraction unbound by LC-MS/MS analysis; format: ADME, cell-free
[29] = Plasma protein binding in dog assessed as fraction unbound by LC-MS/MS analysis; format: ADME, cell-free, Canis lupus familiaris
[30] = Plasma protein binding in human assessed as fraction unbound by LC-MS/MS analysis; format: ADME, cell-free
Cytochrome P450 2C9 = Cytochrome P450 2C9 (Homo sapiens, UniProt P11712); experiment: Inhibition of CYP2C9 in human liver microsomes in presence of NADPH by LC-MS/MS analysis; format: ADME
Cytochrome P450 2C19 = Cytochrome P450 2C19 (Homo sapiens, UniProt P33261); experiment: Inhibition of CYP2C19 in human liver microsomes in presence of NADPH by LC-MS/MS analysis; format: ADME
Cytochrome P450 2D6 = Cytochrome P450 2D6 (Homo sapiens, UniProt P10635); experiment: Inhibition of CYP2D6 in human liver microsomes in presence of NADPH by LC-MS/MS analysis; format: ADME
Cytochrome P450 3A4 = Cytochrome P450 3A4 (Homo sapiens, UniProt P08684); experiment: Inhibition of CYP3A4 in human liver microsomes in presence of NADPH by LC-MS/MS analysis; format: ADME
[31] = Cytotoxicity against human HepG2 cells; format: cell-based
[32] = biological target: Voltage-gated inwardly rectifying potassium channel KCNH2 (Homo sapiens, UniProt Q12809); experiment: Inhibition of human ERG by patch-clamp assay
[33] = Genotoxicity in Salmonella typhimurium by Ames test; format: toxicity; conditions: salmonella enterica subsp. enterica serovar typhimurium
[34] = AUC in rat at 1 mg/kg, iv; format: ADME, organism-based; parameters: dose 1 mg/kg; conditions: in vivo
[35] = Clearance in rat at 1 mg/kg, iv; format: ADME, organism-based; conditions: in vivo
Klebsiella pneumoniae [36] = experiment: Potentiation of meropenem-induced antibacterial activity against Klebsiella Pneumoniae NR-48977 expressing KPC-2 infected in CD-1 mouse assessed as reduction in bacterial burden co administered with 300 mg/kg, iv meropenem; format: functional, organism-based; conditions: dose mg/kg 25-100
Klebsiella pneumoniae [37] = experiment: Potentiation of meropenem-induced antibacterial activity against Klebsiella Pneumoniae ACC-00783 expressing OXA-48 infected in CD-1 mouse assessed as reduction in bacterial burden co administered with 300 mg/kg, iv meropenem; format: functional, organism-based; conditions: dose mg/kg 25-100

Cytochrome P450 2C9, sequence (P11712 whole entry): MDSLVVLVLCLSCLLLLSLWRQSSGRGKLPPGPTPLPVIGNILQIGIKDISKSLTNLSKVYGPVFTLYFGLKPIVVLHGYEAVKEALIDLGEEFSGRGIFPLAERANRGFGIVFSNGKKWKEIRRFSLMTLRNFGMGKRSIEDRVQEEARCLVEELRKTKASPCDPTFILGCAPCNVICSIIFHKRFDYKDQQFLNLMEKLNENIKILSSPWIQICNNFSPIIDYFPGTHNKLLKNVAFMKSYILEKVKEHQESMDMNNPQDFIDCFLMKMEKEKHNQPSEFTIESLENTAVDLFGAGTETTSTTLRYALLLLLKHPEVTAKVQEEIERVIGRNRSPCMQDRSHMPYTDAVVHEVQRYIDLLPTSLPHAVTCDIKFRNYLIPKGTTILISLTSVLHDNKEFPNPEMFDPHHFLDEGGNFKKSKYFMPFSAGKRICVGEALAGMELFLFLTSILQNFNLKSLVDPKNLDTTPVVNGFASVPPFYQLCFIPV
Cytochrome P450 3A4, sequence (P08684 whole entry): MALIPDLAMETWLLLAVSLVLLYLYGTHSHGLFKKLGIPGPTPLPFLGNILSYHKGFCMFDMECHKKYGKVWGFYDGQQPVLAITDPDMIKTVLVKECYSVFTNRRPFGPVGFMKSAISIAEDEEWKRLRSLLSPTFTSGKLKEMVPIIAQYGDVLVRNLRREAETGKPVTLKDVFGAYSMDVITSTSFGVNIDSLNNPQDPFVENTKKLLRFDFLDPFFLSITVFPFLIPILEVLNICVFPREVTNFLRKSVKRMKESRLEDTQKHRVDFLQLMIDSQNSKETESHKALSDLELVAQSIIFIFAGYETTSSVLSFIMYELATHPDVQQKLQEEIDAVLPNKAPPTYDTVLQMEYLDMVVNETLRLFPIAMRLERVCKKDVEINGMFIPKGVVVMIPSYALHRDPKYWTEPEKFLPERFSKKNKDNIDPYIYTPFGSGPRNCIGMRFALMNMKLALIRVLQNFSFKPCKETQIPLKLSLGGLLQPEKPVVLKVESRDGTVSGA
Cytochrome P450 2C19, sequence (P33261 whole entry): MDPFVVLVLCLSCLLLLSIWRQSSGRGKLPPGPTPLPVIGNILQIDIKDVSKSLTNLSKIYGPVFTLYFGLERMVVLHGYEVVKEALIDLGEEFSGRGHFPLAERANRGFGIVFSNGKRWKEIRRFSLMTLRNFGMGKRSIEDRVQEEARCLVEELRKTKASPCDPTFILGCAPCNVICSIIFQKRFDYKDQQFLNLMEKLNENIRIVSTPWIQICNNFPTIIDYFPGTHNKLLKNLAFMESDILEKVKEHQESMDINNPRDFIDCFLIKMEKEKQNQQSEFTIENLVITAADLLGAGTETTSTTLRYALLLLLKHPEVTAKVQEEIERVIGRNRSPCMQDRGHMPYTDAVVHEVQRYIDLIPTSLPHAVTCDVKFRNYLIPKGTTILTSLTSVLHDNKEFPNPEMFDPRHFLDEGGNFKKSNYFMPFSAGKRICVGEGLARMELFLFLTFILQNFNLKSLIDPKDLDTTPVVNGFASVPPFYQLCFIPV
Voltage-gated inwardly rectifying potassium channel KCNH2, sequence (Q12809 whole entry): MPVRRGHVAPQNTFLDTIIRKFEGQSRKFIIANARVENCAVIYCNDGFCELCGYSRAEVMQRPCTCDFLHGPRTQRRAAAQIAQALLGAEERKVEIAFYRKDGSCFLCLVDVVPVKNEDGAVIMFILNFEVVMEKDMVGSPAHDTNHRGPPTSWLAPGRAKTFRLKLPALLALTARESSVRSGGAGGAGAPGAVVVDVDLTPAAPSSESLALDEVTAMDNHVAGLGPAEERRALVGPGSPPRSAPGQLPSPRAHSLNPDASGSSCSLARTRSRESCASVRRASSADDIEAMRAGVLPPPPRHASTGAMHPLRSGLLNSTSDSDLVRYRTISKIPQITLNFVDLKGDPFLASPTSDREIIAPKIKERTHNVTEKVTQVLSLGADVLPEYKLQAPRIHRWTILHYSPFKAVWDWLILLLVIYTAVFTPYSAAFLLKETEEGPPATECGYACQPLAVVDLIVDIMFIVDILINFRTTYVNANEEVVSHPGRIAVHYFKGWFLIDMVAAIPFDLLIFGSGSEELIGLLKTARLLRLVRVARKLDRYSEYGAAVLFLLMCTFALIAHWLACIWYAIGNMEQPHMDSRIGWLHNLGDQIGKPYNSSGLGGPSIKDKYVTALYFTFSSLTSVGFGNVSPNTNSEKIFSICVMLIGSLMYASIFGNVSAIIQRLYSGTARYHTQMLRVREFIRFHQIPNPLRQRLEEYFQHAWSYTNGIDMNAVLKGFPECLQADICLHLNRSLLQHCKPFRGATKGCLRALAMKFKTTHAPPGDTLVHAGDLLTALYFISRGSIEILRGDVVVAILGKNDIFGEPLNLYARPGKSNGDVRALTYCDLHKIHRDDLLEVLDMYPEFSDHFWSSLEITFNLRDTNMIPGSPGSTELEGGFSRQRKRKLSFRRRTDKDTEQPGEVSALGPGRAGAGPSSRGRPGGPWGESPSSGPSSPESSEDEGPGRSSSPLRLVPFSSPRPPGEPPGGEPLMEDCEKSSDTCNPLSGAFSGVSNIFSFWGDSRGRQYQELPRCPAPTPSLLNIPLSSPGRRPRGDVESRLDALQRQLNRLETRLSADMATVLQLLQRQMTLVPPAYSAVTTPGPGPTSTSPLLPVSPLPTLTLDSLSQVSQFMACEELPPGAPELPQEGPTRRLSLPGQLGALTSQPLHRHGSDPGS
Cytochrome P450 2D6, sequence (P10635 whole entry): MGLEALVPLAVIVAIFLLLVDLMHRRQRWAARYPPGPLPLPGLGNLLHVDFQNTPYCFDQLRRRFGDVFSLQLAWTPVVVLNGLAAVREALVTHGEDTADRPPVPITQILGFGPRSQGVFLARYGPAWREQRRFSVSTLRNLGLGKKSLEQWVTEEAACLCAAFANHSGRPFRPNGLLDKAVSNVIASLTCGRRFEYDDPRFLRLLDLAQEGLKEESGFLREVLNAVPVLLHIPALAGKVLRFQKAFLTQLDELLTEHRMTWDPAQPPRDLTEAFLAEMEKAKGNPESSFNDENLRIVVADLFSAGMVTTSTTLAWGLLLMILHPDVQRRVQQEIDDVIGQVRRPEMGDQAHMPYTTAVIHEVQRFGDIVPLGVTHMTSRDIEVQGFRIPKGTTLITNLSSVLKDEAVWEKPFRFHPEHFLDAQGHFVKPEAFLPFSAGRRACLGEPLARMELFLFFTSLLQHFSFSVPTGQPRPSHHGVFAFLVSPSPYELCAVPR

SMILES: O=C1N2C[C@@H](CC[C@H]2F)N1OS(=O)(=O)[O-].[Na+]
- half-life [1]: 38.4 min
- pIC50 [2]: 8.00
- pIC50 [3]: 8.70
- pIC50 [4]: 9.00
- pIC50 [5]: 7.72
- pIC50 [6]: 7.30
- MIC (Enterobacter cloacae [7]): 0.03 µg/mL
- MIC (Klebsiella pneumoniae [8]): 0.25 µg/mL
- MIC (Klebsiella pneumoniae [9]): 1 µg/mL
- MIC (Enterobacter cloacae [10]): 128 µg/mL
- MIC (Klebsiella pneumoniae [11]): 128 µg/mL
- MIC90 (Enterobacter [12]): 1 µg/mL
- Activity (Enterobacter [13]): 16 µg/mL
- MIC50 (Enterobacter [14]): 0.12 µg/mL
- MIC90 (Enterobacter [15]): 1 µg/mL
- MIC (Enterobacter [16]): < 0.03 µg/mL
- MIC50 (Acinetobacter baumannii [17]): 4 µg/mL
- MIC90 (Acinetobacter baumannii [18]): 8 µg/mL
- MIC (Acinetobacter baumannii [19]): 0.25 µg/mL
- Activity (Acinetobacter baumannii [20]): > 32 µg/mL
- remaining at 1 h [21]: 90%
- remaining at 1 h [22]: 85%
- hepatocyte CLint [23]: < 3.5 µL/min/1e6 cells
- hepatocyte CLint [24]: < 3.4 µL/min/1e6 cells
- hepatocyte CLint [25]: < 3 µL/min/1e6 cells
- hepatocyte CLint [26]: < 3.4 µL/min/1e6 cells
- fraction unbound [27]: > 0.93
- fraction unbound [28]: > 0.93
- fraction unbound [29]: > 0.93
- fraction unbound [30]: > 0.93
- pIC50 (Cytochrome P450 2C9): < 4.30
- pIC50 (Cytochrome P450 2C19): < 4.30
- pIC50 (Cytochrome P450 2D6): < 4.30
- pIC50 (Cytochrome P450 3A4): < 4.30
- CC50 [31]: > 100000 nM
- pIC50 [32]: < 4.00
- Activity [33]: Non-Toxic
- AUC [34]: 412 ng·h/mL
- clearance [35]: 40 mL/min/kg
- Activity (Klebsiella pneumoniae [36]): Dose-dependent effect
- Activity (Klebsiella pneumoniae [37]): Dose-dependent effect
